Assay results as given in patent US20240165023A1, “LIQUID PHARMACEUTICAL COMPOSITION” (Verona Pharma PLC, priority 2022, published 2024).

How the values were obtained:
[1] = Plasma pharmacokinetics of ensifentrine after administration of the composition to healthy patients; format: in vivo; conditions: human, inhaled
[2] = Plasma pharmacokinetics of ensifentrine in COPD patients, popPK model simulation from trial samples; format: in vivo, human
Experimental: Plasma concentrations of ensifentrine for the assessment of pharmacokinetic (PK) parameters were measured using validated bioanalytical methods for ensifentrine in human plasma with LLOQ of 5 pg/mL.
Samples were taken on the following schedule: • Week 6: 1.0 h (±0.5 h) and 2.5 h (±0.5 h) (even sites) or 1.5 h and 4 h (±1 h) (odd sites); • Week 12: pre-dose (−0.5 h), 4 to 6 h, and 8 to 12 h (even sites) or 0.5 h (±0.25 h), 3 h (±0.5 h), and 6 to 8 h (odd sites); • Week 24: pre-dose (−0.5 h) and 1.5 h (even sites) or pre-dose (−0.5 h) and 1 h (±0.5 h) (odd sites)
Based on the samples taken during the trial, PK data was modelled for COPD patients with normal renal function. The final popPK model was used to predict parameter estimates in a virtual population of 50000 subjects (per covariate condition) for simulation of ensifentrine PK following nebulization of 3 mg in a population reflecting the population in the trial with normal renal function or mild renal impairment, or with moderate renal impairment. Uncertainty in fixed effects and covariance matrix parameters as well as residual variability were included in the simulations. The parameter uncertainty was accounted for by random resampling (without replacement) of 500 sets of parameter estimates from the bootstrap (750 replicates) in R to create 500 NONMEM simulation control streams. From each set of parameter estimates, the PK profiles for 100 subjects (for each covariate condition) were simulated with IV and IOV from the covariance matrix and residual error in NONMEM. Individual subject concentrations were simulated using NONMEM version 7.4.3, and PK parameters were calculated using R version 3.4.0.

[3] = test system: patients with moderate to severe COPD; assay: Clinical study of nebulised ensifentrine 3 mg BID vs placebo, lung function (FEV1) in COPD; format: in vivo, human; conditions: 3 mg BID by nebuliser
Experimental: A clinical study was conducted to determine the efficacy of ensifentrine in treating COPD compared with placebo. Ensifentrine was administered by nebuliser at a dose of 3 mg twice daily (BID) for 24 weeks. The study was a multi-centre, randomized, double-blind, parallel-group, placebo-controlled trial with around 800 patients and 5:3 randomization.
The study population included patients aged 40-80 years with moderate to severe COPD (FEV1 30%-70% p.n., FEV1/forced vital capacity (FVC) ratio <0.7, with mMRC 2). The randomization stratified (a) the use of stable background maintenance LAMA or LABA therapy use (approx. 50%. yes or no) and (b) cigarette smoking (current or former). Inhaled corticosteroid (ICS) maintenance therapy was permitted in up to 20% of patients under certain provisions.
The primary endpoint of the study was change from baseline in average FEV1 area under the curve (AUC)0-12 h post-dose at week 12. Secondary endpoints of the study included: peak FEV1 over 4 hours post-dose at Week 12; morning trough FEV1 at Week 12; and other endpoints including moderate/severe COPD exacerbations frequency over 24 Weeks.
Baseline FEV1 is the mean of the two measurements taken before study medication on the day of first dosing, i.e. <40 minutes and just prior to dosing, both pre-dose on day 1.
Average FEV1 AUC0-12 h is defined as area under the curve over 12 hours of the FEV1, divided by 12 hours.
The investigational product and placebo were provided in 2.5 mL unit dose format in an ampule and administered via a nebuliser. The formulation of the investigational product (ensifentrine suspension formulation comprising crystalline polymorph Form I of ensifentrine) and placebo are shown in Table 1 below.

[4] = human, plasma, inhaled, 3 mg, patients with COPD
[5] = nebulization of 3 mg, COPD patients with normal renal function, popPK simulation in virtual population

**Q.** Which Cmax [1] does the source give for `COc1cc2c(cc1OC)-c1c/c(=N\c3c(C)cc(C)cc3C)n(CCNC(N)=O)c(=O)n1CC2` [Ensifentrine, N-(2-{(2E)-9,10-dimethoxy-4-oxo-2-[(2,4,6-trimethylphenyl)imino]-6,7-dihydro-2H-pyrimido[6,1-a]isoquinolin-3(4H)-yl}ethyl)urea] here?
**A.** 0.852 ng/mL

**Q.** And the AUC(0-inf) ([1]; read-out: mean AUC0-∞)?
**A.** 5.93 ng·h/mL

**Q.** And the “systemic exposure in COPD patients compared with healthy patients” value ([2]; COPD patients vs healthy patients)?
**A.** lower systemic exposure

**Q.** What about the AUC [2, 4] of the same compound?
**A.** 2.45 ng·h/mL

**Q.** And the Cmax [2, 4]?
**A.** 0.522 ng/mL

**Q.** What about the “AUC0-tau, Median (90% prediction interval)” value [2, 5] of the same compound?
**A.** 2450 (882-7500) pg/mL * h

**Q.** What about the “Cmax, Median (90% prediction interval)” value [2, 5] of the same compound?
**A.** 522 (173-1330) pg/mL

**Q.** And the “tmax, Median” value [2, 5]?
**A.** 1.0 h

**Q.** And the “primary endpoint of average FEV1 (AUC)0-12 h at Week 12” value ([3]; Week 12)?
**A.** met

**Q.** And the “Average FEV1 (AUC)0-12 h post-dose at Week 12: Change from Baseline (CFB) Least Squares Mean” value ([3]; Week 12, n = 498, COPD patients)?
**A.** 48.2 mL

**Q.** And the “Average FEV1 (AUC)0-12 h post-dose at Week 12: Placebo-corrected CFB LS Mean Diff.” value ([3]; Week 12, vs placebo (n = 291))?
**A.** 93.9 mL

**Q.** What about the “improvement in lung function in subgroups of COPD patients” value ([3]; all subgroups) of the same compound?
**A.** improvement in lung function with ensifentrine that was statistically significant
